In ChEMBL document CHEMBL5325443, “Discovery and structure-activity relationship of Morita-Baylis-Hillman adducts as larvicides against dengue mosquito vector, Aedes aegypti (Diptera: Culicidae)” (2023) one finds mortality, LC50 and Activity data, which are given here for 18 compounds.

The test system of assay [1] is Aedes aegypti. Nature of the assay: Larvicidal activity against fourth instar Aedes aegypti larvae assessed as mortality rate at 100 ug/ml measured after 48 hrs relative to control. Type of assay: functional.
Assay [2] relates to Aedes aegypti. The assay is described as follows: Larvicidal activity against fourth instar Aedes aegypti larvae assessed as lethal concentration measured after 48 hrs. The assay is classed as functional.
Assay [3] deals with Aedes aegypti. Nature of the assay: Induction of morphological changes in fourth instar Aedes aegypti larvae assessed as modification in terminal abdomen in 6th to 8th segment at LC50 concentration measured after 48 hrs by scanning electron microscopic analysis. The assay is classed as functional, organism-based.
Assay [4] deals with Aedes aegypti. Nature of the assay: Induction of morphological changes in fourth instar Aedes aegypti larvae assessed as damage in thorax at LC50 concentration measured after 48 hrs by scanning electron microscopic analysis. The assay is classed as functional.
Assay [5] relates to Aedes aegypti. Nature of the assay: Induction of morphological changes in fourth instar Aedes aegypti larvae assessed as loss in anal papillae at LC50 concentration measured after 48 hrs by scanning electron microscopic analysis. The assay is classed as functional, organism-based.

≈ marks a conversion by molar mass, not a printed value. Calls of active or inactive are those of the source. The rule behind the calls is not given here.

On to `C=C(C(=O)OCC)C(O)c1nccs1` (stereo not given), for which the mortality at 100 µg/mL in the assay with Aedes aegypti [1] was 10%.

`C=C(C(=O)OC)C(O)c1ccccc1Cl` (stereo not given): in the assay with Aedes aegypti [1], the mortality at 100 µg/mL stood at 21.7%.

Turning to `CC[C@H]1CCC[C@H](O[C@H]2CC[C@H](N(C)C)[C@@H](C)O2)[C@@H](C)C(=O)C2=C[C@@H]3[C@@H](C=C(C)[C@@H]4C[C@@H](O[C@@H]5O[C@@H](C)[C@H](OC)[C@@H](OC)[C@H]5OC)C[C@@H]34)[C@@H]2CC(=O)O1` [SPINOSYN D], the LC50 in the assay on Aedes aegypti [2] was 0.02 µg/mL (≈ 0.0268 µM).

As to `C=C(C(=O)OC)C(O)/C=C/c1ccccc1` (stereo not given), in the assay with Aedes aegypti [1], the mortality at 100 µg/mL amounted to 71.7%.

Turning to `C=C(C(=O)OCC)C(O)c1ccc([N+](=O)[O-])cc1` (stereo not given), in the assay on Aedes aegypti [1], the mortality at 100 µg/mL is 16.7%.

Consider `C=C(C(=O)OC)C(O)c1ccc(C)cc1` (stereo not given), for which the mortality at 100 µg/mL in the assay on Aedes aegypti [1] was found to be 10%.

For `C=C(C(=O)OC)C(O)c1ccc(Br)cc1` (stereo not given), the mortality at 100 µg/mL in the assay on Aedes aegypti [1] was found to be 51.7%.

For `C=C(C(=O)OC)C(O)c1ccc(-c2ccccc2)cc1` (stereo not given), in the assay on Aedes aegypti [1], the mortality at 100 µg/mL was 93.3%. Also, the outcome in the assay on Aedes aegypti [3] and in the assay on Aedes aegypti [5] was Active. Moreover, the Activity with Aedes aegypti [4] is recorded as 100%. Besides, the LC50 in the assay on Aedes aegypti [2] came out at 41.4 µg/mL (≈ 154 µM).

In the case of `CC[C@H]1CCC[C@H](O[C@H]2CC[C@H](NC)[C@@H](C)O2)[C@@H](C)C(=O)C2=C[C@@H]3[C@@H](C=C[C@@H]4C[C@@H](O[C@@H]5O[C@@H](C)[C@H](OC)[C@@H](OC)[C@H]5OC)C[C@@H]34)[C@@H]2CC(=O)O1`, the LC50 with Aedes aegypti [2] was found to be 0.02 µg/mL (≈ 0.0279 µM).

On to `C=C(C(=O)OC)C(O)c1ccc2ccccc2c1` (stereo not given), for which the mortality at 100 µg/mL in the assay with Aedes aegypti [1] is 88.3%. Also, the LC50 with Aedes aegypti [2] stood at 77.7 µg/mL (≈ 321 µM).

As to `C=C(C(=O)OC)C(O)c1cc(OC)c(OC)c(OC)c1` (stereo not given), in the assay with Aedes aegypti [1], the mortality at 100 µg/mL amounted to 16.7%.

On to `CC[C@H]1CCC[C@H](O[C@H]2CC[C@H](N(C)C)[C@@H](C)O2)[C@@H](C)C(=O)C2=C[C@@H]3[C@@H](C=C[C@@H]4C[C@@H](O[C@@H]5O[C@@H](C)[C@H](OC)[C@@H](OC)[C@H]5OC)C[C@@H]34)[C@@H]2CC(=O)O1` [SPINOSYN A], for which the LC50 in the assay with Aedes aegypti [2] worked out at 0.02 µg/mL (≈ 0.0273 µM).

On to `C=C(C(=O)OCC)C(O)c1ccc(OC)cc1` (stereo not given), for which the mortality at 100 µg/mL with Aedes aegypti [1] was determined as 21.7%.

On to `CC(COc1ccc(Oc2ccccc2)cc1)Oc1ccccn1` (stereo not given) [PYRIPROXYFEN], for which, in the assay with Aedes aegypti [2], the LC50 was 1.75 µg/mL (≈ 5.45 µM).

On to `C=C(C(=O)OCC)C(O)c1ccccc1Cl` (stereo not given), for which, in the assay with Aedes aegypti [1], the mortality at 100 µg/mL turned out to be 85%. Further, in the assay with Aedes aegypti [2], the LC50 was 86.7 µg/mL (≈ 360 µM).

Consider `C=C(C(=O)OC)C(O)c1ccc(F)cc1` (stereo not given), for which the mortality at 100 µg/mL with Aedes aegypti [1] was 16.7%.

Consider `COP(=S)(OC)Oc1ccc(Sc2ccc(OP(=S)(OC)OC)cc2)cc1` [TEMEFOS], for which, in the assay with Aedes aegypti [2], the 50% lethal concentration (LC50) was 4.25 µg/mL (≈ 9.11 µM).

As for `C=C(C(=O)OC)C(O)c1ccc(Cl)cc1` (stereo not given), the mortality at 100 µg/mL in the assay with Aedes aegypti [1] is 81.7%. Moreover, the LC50 in the assay on Aedes aegypti [2] was determined as 88.2 µg/mL (≈ 389 µM).

As a reminder, the mortality is the share of the test organisms that died. As a reminder, the LC50 is the concentration lethal to half of the exposed cells or organisms.
